Biological target: GST-Xa-hAAK1 (Homo sapiens (Human), UniProt Q2M2I8)
Assay: AAK1 Kinase Assay
Type: biochemical
Details: ATP 22 μM; 3 hours at room temperature
Procedure: The assays were performed in U-bottom 384-well plates. […] The reactions were initiated by the combination of bacterially expressed, GST-Xa-hAAK1 with substrates and test compounds. The reactions were incubated at room temperature for 3 hours and terminated by adding 60 μl of 35 mM EDTA buffer to each sample. The reactions were analyzed on the Caliper LabChip 3000 (Caliper, Hopkinton, Mass.) by electrophoretic separation of the fluorescent substrate and phosphorylated product. Inhibition data were calculated by comparison to EDTA quenched control reactions for 100% inhibition and vehicle-only reactions for 0% inhibition. […] Dose response curves were generated to determine the concentration required inhibiting 50% of kinase activity (IC50). Compounds were dissolved at 10 mM in dimethylsulfoxide (DMSO) and evaluated at eleven concentrations. IC50 values were derived by non-linear regression analysis.

GST-Xa-hAAK1, sequence (Q2M2I8 whole entry): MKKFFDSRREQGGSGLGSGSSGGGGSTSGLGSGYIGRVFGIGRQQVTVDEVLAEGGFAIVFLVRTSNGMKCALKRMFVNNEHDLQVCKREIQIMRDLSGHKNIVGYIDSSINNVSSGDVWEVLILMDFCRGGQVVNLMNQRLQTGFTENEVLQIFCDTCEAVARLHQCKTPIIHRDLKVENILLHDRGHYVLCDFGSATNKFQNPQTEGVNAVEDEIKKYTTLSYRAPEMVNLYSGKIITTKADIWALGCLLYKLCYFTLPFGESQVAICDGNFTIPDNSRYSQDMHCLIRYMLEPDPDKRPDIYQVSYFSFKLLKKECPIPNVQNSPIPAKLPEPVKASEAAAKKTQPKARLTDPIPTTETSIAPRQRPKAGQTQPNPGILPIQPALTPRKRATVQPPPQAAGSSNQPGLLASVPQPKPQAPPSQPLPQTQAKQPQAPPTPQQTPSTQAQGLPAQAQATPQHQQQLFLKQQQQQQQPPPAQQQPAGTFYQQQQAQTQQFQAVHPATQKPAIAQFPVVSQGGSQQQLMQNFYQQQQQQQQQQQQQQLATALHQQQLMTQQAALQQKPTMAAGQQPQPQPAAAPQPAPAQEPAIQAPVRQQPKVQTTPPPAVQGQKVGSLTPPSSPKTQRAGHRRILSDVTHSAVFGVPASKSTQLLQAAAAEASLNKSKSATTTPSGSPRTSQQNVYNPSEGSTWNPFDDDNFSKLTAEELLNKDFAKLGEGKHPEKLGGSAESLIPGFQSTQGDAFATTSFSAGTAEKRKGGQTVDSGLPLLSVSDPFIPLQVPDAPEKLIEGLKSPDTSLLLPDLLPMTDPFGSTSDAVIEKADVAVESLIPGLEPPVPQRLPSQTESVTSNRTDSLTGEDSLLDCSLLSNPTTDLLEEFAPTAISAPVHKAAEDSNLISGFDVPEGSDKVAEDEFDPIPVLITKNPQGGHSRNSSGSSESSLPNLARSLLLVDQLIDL

IC50 [nM] | SMILES
16 | NC1CCN(Cc2ccn3ncnc(Nc4cccc(-c5noc(C6CCCC6)n5)c4)c23)CC1 [Example 73, 5-((4-aminopiperidin-1-yl)methyl)-N-(3-(5-cyclopentyl-1,2,4-oxadiazol-3-yl)phenyl)pyrrolo[2,1-f][1,2,4]triazin-4-amine]
220 | CC(C)n1nnc(-c2cccc(Nc3ncnn4cccc34)c2)n1 [Example 76, N-(3-(2-isopropyl-2H-tetrazol-5-yl)phenyl)pyrrolo[2,1-f][1,2,4]triazin-4-amine]
291 | CC(C)c1nc(-c2cccc(Nc3ncnn4cccc34)c2)no1 [Example 77, N-(3-(5-isopropyl-1,2,4-oxadiazol-3-yl)phenyl)pyrrolo[2,1-f][1,2,4]triazin-4-amine]
112 | CC(C)(CCl)c1nc(-c2cccc(Nc3ncnn4cccc34)c2)no1 [Example 78, N-(3-(5-(1-chloro-2-methylpropan-2-yl)-1,2,4-oxadiazol-3-yl)phenyl)pyrrolo[2,1-f][1,2,4]triazin-4-amine]
269 | CC(C)c1nnc(-c2cccc(Nc3ncnn4cccc34)c2)s1 [Example 79, N-(3-(5-isopropyl-1,3,4-thiadiazol-2-yl)phenyl)pyrrolo[2,1-f][1,2,4]triazin-4-amine]
384 | CC(C)c1nnc(-c2cccc(Nc3ncnn4cccc34)c2)o1 [Example 80, N-(3-(5-isopropyl-1,3,4-oxadiazol-2-yl)phenyl)pyrrolo[2,1-f][1,2,4]triazin-4-amine]

Same assay, conditions: ATP 22 μM; 3 hours at room temperature; listed as IC50 ranges

IC50 [nM] | SMILES
100 to 1000 | CC(C)C[C@@H](N)C(=O)Nc1cccc(Nc2ncnn3ccc(CN4CCC(N)CC4)c23)c1 [Example 67, (R)-2-amino-N-(3-((5-((4-aminopiperidin-1-yl)methyl)pyrrolo[2,1-f][1,2,4]triazin-4-yl)amino)phenyl)-4-methylpentanamide]
1000 to 5000 | NC1CCN(Cc2cc(Br)n3ncnc(Nc4cccc(-c5cnco5)c4)c23)CC1 [Example 68, 5-((4-aminopiperidin-1-yl)methyl)-7-bromo-N-(3-(oxazol-5-yl)phenyl)pyrrolo[2,1-f][1,2,4]triazin-4-amine]
100 to 1000 | CC(C)c1nnc(-c2cccc(Nc3ncnn4ccc(CNCCCN)c34)c2)s1 [Example 69, N1-((4-((3-(5-isopropyl-1,3,4-thiadiazol-2-yl)phenyl)amino)pyrrolo[2,1-f][1,2,4]triazin-5-yl)methyl)propane-1,3-diamine]
100 to 1000 | CC(CN)CNCc1ccn2ncnc(Nc3cccc(-c4nnc(C(C)C)s4)c3)c12 (centres unmarked) [Example 70, N1-((4-((3-(5-isopropyl-1,3,4-thiadiazol-2-yl)phenyl)amino)pyrrolo[2,1-f][1,2,4]triazin-5-yl)methyl)-2-methylpropane-1,3-diamine]
1000 to 5000 | CC(C)c1nnc(-c2cccc(Nc3ncnn4ccc(CN5CCCC(CN)C5)c34)c2)s1 (centres unmarked) [Example 71, 5-((3-(aminomethyl)piperidin-1-yl)methyl)-N-(3-(5-isopropyl-1,3,4-thiadiazol-2-yl)phenyl)pyrrolo[2,1-f][1,2,4]triazin-4-amine]
10 to 100 | CC(C)n1nnc(-c2cc(Nc3ncnn4ccc(CN5CCC(N)CC5)c34)cc(C(F)F)c2)n1 [Example 72, 5-((4-aminopiperidin-1-yl)methyl)-N-(3-(difluoromethyl)-5-(2-isopropyl-2H-tetrazol-5-yl)phenyl)pyrrolo[2,1-f][1,2,4]triazin-4-amine]
10 to 100 | CC(C)n1nnc(-c2cc(Nc3ncnn4ccc(CN5CCC(N)CC5)c34)c3[nH]ccc3c2)n1 [Example 74, 5-((4-aminopiperidin-1-yl)methyl)-N-(5-(2-isopropyl-2H-tetrazol-5-yl)-1H-indol-7-yl)pyrrolo[2,1-f][1,2,4]triazin-4-amine]
100 to 1000 | CC(C)n1nnc(-c2cc(Nc3ncnn4ccc(CN5CCC(N)CC5)c34)cc3[nH]cnc23)n1 [Example 75, 5-((4-aminopiperidin-1-yl)methyl)-N-(4-(2-isopropyl-2H-tetrazol-5-yl)-1H-benzo[d]imidazol-6-yl)pyrrolo[2,1-f][1,2,4]triazin-4-amine]

Reference: US9737542B2, “Pyrrolotriazine kinase inhibitors” (BRISTOL-MYERS SQUIBB COMPANY, priority 2013, dated 2017)
